Measured values reported in PMC7838189, “Natural podophyllotoxin analog 4DPG attenuates EMT and colorectal cancer progression via activation of checkpoint kinase 2” (Cell Death Discovery, 2021).
Values joined by “and” are separate entries in the source; they are usually repeats but may differ in a detail not shown here. Equal values may be shown once.

Columns and labels:
[1] = tested on: Vimentin–p53 association in SW-620/5-FU-R cells; assay: Immunoprecipitation of Vimentin and p53; format: cell-based; details: 300 nM, 48 h, vs ample p53 in vehicle
Procedure: Fig. 3 Chk2-dependent role of 4DPG in modulating p53 and repressing Vimentin expression in 5-FU-R cells. A Immunocytochemistry results showing the Vimentin expression level in SW-620/5-FU-R cells treated/transfected with scramble, SiChk2, scramble plus 4DPG, SiChk2 plus 4DPG, vehicle, PV1019, 4DPG, and PV1019 plus 4DPG for 48 h. Scale bars: 50 µm. […] C Matrigel invasion assay results showing invaded HCT-116/5-FU-R and SW-620/5-FU-R cells following 48 h of transient transfection with GFP and GFP-Chk2 plasmid construct. Scale bars: 50 µm. D Quantification of the number of invaded cells per field from the above experimental conditions. n = 3, error bars, mean ± SD; *P < 0.05, ***P < 0.001. E Immunocytochemistry results displaying Vimentin expression levels in HCT-116/5-FU-R and SW-620/5-FU-R cells after 48 h of transient transfection with pCDNA3 and/or HA-Chk2 plasmid construct. Scale bars: 50 µm. F Immunoprecipitation with Vimentin or p53 followed by western blotting analysis of p53 in SW-620/5-FU-R cells treated with vehicle and/or 4DPG (300 nM) for 48 h. […]
For immunoprecipitation analysis, the previously described procedure was followed with minor modification. […] Following careful washing with lysis buffer, the immunoprecipitates were analyzed by western blotting.

HT-29/5-FU-R cells = assay: Western blotting of Chk2 after 4DPG; format: cell-based; details: 48 h, vs vehicle
Text: 4DPG, a podophyllotoxin class of natural product anticancer compound (Supplementary Fig. S2A) has been recently described by our research group for its potent antitumor and anti-metastatic properties against aggressive cancers[31],[32]. Further, 4DPG augments phosphorylation and activation of Chk2 (Thr68) leading to suppression of EMT and invasiveness of p53-defective cancer cells. To investigate the effect of 4DPG on phosphorylation and expression levels of Chk2 in HCT-116/5-FU-R, SW-620/5-FU-R, and HT-29/5-FU-R cells, we treated these cells for 48 h with increasing concentrations of the compound, and whole-cell lysates were subjected to western blotting analysis. […] To determine the effect of 4DPG on the invasion abilities of these 5-FU-R cells, we performed in situ fluorescent gelatin degradation assay following our pre-standardized protocol[31],[37]. In physiological conditions, this assay mimics the extracellular matrix degradation by aggressive tumor cells undergoing invasion–metastasis process.
We adhered to the previously published protocol for western blotting. To sum up, cells were exposed to the respective treatments (mentioned in figure legends). Post-treatment, cells were lysed with cell lysis buffer, and cell lysates were collected after centrifugation. Bradford assay was performed to quantify the protein concentration. […]

[2] = Pharmacokinetic study, single i.v. dose; format: in vivo; details: 5 mg/kg i.v. single dose, Balb/c mice
Procedure: Subsequently, to evaluate the exposure of 4DPG in healthy animals, we performed PK analysis in Balb/c mice by administering a single dose (5 mg/kg) of the compound intravenously.
The PK studies were performed following our standardized procedure with minor modifications. To determine the PK profile of 4DPG, healthy male Balb/c mice (body weight 25–30 g each) were employed in the study. Six animals were enrolled for each sampling time point and a total of 11 time points (0.083, 0.25, 0.5, 1, 2, 4, 6, 8, 12, 16, and 24 h) were involved in the study. Control group of mice were administered with saline and test groups of animals received a single dose of 4DPG (5 mg/kg, body weight) intravenously. After the successful injections of the molecule, 100 µL of plasma was collected from each animal enrolled at the above sampling time points and the plasma proteins were precipitated with 400 µL of acetonitrile. Following extraction into the solvent and subsequent filtration, the compound was analyzed using a 6410 triple-quadrupole LC–MS/MS system (Agilent Technologies, USA). Individual samples collected at each time point were quantified through single ion monitoring (SIM) by comparing with the standard calibration curve prepared using Agilent Mass Hunter software (version B.04.00) (detailed description is provided in Supplementary information file). Essential PK parameters such as half-life (t1/2), C initial (C0), area under the curve (AUC0–∞), volume of distribution (Vd), clearance (Cl), and mean residence time (MRT) were calculated utilizing noncompartmental pharmacokinetic data analysis.

COc1cc([C@@H]2c3cc4c(cc3C[C@H]3COC(=O)[C@@H]32)OCO4)cc(OC)c1O[C@@H]1O[C@H](CO)[C@@H](O)[C@H](O)[C@H]1O [4DPG, 4′-demethyl-deoxypodophyllotoxin glucoside]
p53 detected in Vimentin pull-down lysates [1]: negligible p53 expression | increase in p-Chk2 (Thr68) level (HT-29/5-FU-R cells; 300 nM (sub-toxic)): 7.9 fold | expression of Chk2 (total) (HT-29/5-FU-R cells): did not alter significantly | Area under curve (AUC0-t) [2]: 10068.884 ng·h/mL | Area under curve (AUC0-∞) [2]: 10104.05 ng·h/mL and 10104.053 ng·h/mL | Clearance (Cl) [2]: 8.25 mL/min/kg | Half-life (t1/2) [2]: 39.2 min | Mean residence time (MRT) [2]: 18.4 min | Volume of distribution (Vd) [2]: 0.466 L/kg | C initial (C0) ([2]; plasma): 10165.18 ng/mL
